# Measurements reported in patent publication US20090247559A1 (Exelixis, Inc., priority 2007, published 2009).
# Where a name gives a salt, the structure may show the parent alone. Read-outs that look alike come from different tables or passages of the source.
# Experiments:
# CK2 = CK2 (Homo sapiens, UniProt P68400); assay: CK2 inhibition, biochemical chemiluminescence holoenzyme assay (Kinase Glo, IC50 determination); settings: Table 1 activity class; symbol given only if active; read-out: CK2 IC50 (Activity C)
# Method in brief: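 Holoenzyme CK2 assay; compounds pre-incubated with substrate and enzyme, then reacted 150 min at 24-27° C. Remaining ATP measured as luminescence with Kinase Glo, and IC50 derived from the signal.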
# [1] = molecular target: PIM (PIM-1, PIM-2, and/or PIM-3); assay: PIM-1, PIM-2 and PIM-3 inhibition, biochemical chemiluminescence assays (Kinase Glo, IC50 determination); settings: Table 1 activity class; PIM refers to PIM-1, PIM-2, and/or PIM-3; read-out: PIM IC50 (Activity B)
# CDC7 = CDC7 (Homo sapiens, UniProt O00311); assay: CDC7 inhibition, biochemical chemiluminescence assay (Kinase Glo, IC50 determination)
# Method in brief: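 CDC7 enzyme preincubated with compound 10 min at ambient temperature, then ATP mix in Tris Base added; reaction 90 min at 24-27 °C. Remaining ATP quantified by Kinase Glo luminescence to give IC50.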
# [2] = CDC7 IC50 (Activity A), Table 1 activity class, symbol given only if active
# [3] = CDC7 IC50 value, compounds in Table 1
# [4] = Table 1 activity class, symbol given only if active, read-out: CDC7 IC50 (Activity A)
# [5] = compounds in Table 1, read-out: CDC7 IC50 value
# Sequence of CK2 (P68400 whole entry): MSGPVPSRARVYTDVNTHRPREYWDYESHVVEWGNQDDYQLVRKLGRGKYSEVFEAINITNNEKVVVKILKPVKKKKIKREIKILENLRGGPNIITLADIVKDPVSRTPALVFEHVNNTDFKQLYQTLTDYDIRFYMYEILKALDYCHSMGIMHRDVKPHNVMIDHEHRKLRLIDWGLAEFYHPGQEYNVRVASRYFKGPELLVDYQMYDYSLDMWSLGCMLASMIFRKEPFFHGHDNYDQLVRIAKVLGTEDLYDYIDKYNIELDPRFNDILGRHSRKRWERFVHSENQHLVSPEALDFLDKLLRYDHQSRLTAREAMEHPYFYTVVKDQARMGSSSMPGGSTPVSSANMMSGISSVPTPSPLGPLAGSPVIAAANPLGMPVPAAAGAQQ
# Sequence of CK2 (P67870 whole entry partner): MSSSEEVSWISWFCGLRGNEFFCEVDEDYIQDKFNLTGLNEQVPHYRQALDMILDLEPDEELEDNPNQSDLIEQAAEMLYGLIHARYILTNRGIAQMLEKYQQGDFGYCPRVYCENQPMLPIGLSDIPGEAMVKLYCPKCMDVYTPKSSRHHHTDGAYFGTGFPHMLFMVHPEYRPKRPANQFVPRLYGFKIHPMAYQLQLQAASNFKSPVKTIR
# Sequence of CDC7 (O00311 whole entry): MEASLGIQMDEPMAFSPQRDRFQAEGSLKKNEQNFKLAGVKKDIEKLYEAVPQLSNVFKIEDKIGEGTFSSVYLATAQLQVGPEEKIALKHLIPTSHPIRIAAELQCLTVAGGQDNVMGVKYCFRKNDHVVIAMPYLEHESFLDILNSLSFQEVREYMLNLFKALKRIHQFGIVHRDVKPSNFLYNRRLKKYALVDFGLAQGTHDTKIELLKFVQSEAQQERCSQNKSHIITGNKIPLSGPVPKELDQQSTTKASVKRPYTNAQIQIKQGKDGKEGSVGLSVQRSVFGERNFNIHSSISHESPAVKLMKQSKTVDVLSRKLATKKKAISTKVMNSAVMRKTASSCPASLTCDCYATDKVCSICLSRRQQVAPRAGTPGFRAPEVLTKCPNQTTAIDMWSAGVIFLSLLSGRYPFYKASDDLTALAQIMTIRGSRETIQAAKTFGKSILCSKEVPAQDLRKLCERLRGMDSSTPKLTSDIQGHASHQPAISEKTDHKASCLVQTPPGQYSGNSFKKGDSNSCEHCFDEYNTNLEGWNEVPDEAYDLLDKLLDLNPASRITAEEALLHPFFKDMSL
# Sequence of CDC7 (Q9UBU7 whole entry partner): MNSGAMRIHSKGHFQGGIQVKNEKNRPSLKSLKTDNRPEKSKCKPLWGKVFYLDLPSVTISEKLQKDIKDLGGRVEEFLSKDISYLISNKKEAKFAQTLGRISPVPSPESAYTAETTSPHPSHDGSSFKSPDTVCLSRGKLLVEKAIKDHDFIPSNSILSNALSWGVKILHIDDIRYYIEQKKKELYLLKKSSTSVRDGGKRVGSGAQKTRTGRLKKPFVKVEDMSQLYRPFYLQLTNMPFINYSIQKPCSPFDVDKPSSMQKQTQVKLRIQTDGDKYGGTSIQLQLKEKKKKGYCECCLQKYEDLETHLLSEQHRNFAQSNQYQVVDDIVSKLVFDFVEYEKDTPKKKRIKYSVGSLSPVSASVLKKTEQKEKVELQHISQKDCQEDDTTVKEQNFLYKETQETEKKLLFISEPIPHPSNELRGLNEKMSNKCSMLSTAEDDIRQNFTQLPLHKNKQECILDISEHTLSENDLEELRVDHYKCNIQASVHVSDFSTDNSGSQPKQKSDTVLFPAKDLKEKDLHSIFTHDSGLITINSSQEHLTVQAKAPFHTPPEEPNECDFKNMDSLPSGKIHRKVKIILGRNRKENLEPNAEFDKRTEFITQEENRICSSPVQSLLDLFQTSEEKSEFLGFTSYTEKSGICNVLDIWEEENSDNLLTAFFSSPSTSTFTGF
SMILES,IC50 (CK2) [µM],IC50 [1] [µM],IC50 (CDC7; [4]) [µM],IC50 (CDC7; [5]) [µM],IC50 (CDC7; [2]) [µM],IC50 (CDC7; [3]) [µM]
"O=c1[nH]c([C@@H]2CC3CCCCC3N2)nc2c1oc1ccc(Br)cc12 (stereo partly drawn) [Compound 501, 8-bromo-2-[(2S)-octahydro-1H-indol-2-yl][1]benzofuro[3,2-d]pyrimidin-4(3H)-one]",< 10,< 10,,,< 10,< 0.1
"CCC(CC)NCc1nc2c(oc3ccc(Br)cc32)c(=O)[nH]1 [Compound 502, 8-bromo-2-{[(1-ethylpropyl)amino]methyl}[1]benzofuro[3,2-d]pyrimidin-4(3H)-one]",< 10,< 10,< 10,< 0.1,,
"O=c1[nH]c([C@@H]2C=CCN2)nc2c1oc1ccc(Br)cc12 [Compound 505, 8-bromo-2-[(2S)-2,5-dihydro-1H-pyrrol-2-yl][1]benzofuro[3,2-d]pyrimidin-4(3H)-one]",< 10,< 10,< 10,< 0.1,,
"O=c1[nH]c([C@@H]2CCCN2)nc2c1oc1ccccc12 [Compound 506, 2-[(2S)-pyrrolidin-2-yl][1]benzofuro[3,2-d]pyrimidin-4(3H)-one]",< 10,< 10,< 10,,,
"O=c1[nH]c([C@@H]2CCCN2)nc2c1oc1ccc(Cl)cc12 [Compound 507, 8-Chloro-2-[(2S)-pyrrolidin-2-yl][1]benzofuro[3,2-d]pyrimidin-4(3H)-one Hydrochloride]",< 10,< 10,< 10,< 0.1,,
"CC(c1nc2c(oc3ccc(Br)cc32)c(=O)[nH]1)N1CC[C@H](O)C1 (stereo partly drawn) [Compound 508, 8-bromo-2-{1-[(3S)-3-hydroxypyrrolidin-1-yl]ethyl}[1]benzofuro[3,2-d]pyrimidin-4(3H)-one]",< 10,< 10,< 10,< 0.1,,
"O=c1[nH]c([C@@H]2CCN2)nc2c1oc1ccc(Br)cc12 [Compound 509, 2-[(2S)-azetidin-2-yl]-8-bromo[1]benzofuro[3,2-d]pyrimidin-4(3H)-one]",< 10,< 10,< 10,< 0.1,,
"O=c1[nH]c([C@@H]2Cc3ccccc3N2)nc2c1oc1ccc(Br)cc12 [Compound 510, 8-bromo-2-[(2S)-2,3-dihydro-1H-indol-2-yl][1]benzofuro[3,2-d]pyrimidin-4(3H)-one]",< 10,< 10,< 10,,,
"O=c1[nH]c([C@@H]2C[C@H](O)CN2)nc2c1oc1ccc(Br)cc12 [Compound 511, 8-bromo-2-[(2S,4S)-4-hydroxypyrrolidin-2-yl][1]benzofuro[3,2-d]pyrimidin-4(3H)-one]",< 10,< 10,< 10,< 0.1,,
"O=c1[nH]c([C@@H]2CC(F)(F)CN2)nc2c1oc1ccc(Br)cc12 [Compound 512, 8-bromo-2-[(2S)-4,4-difluoropyrrolidin-2-yl][1]benzofuro[3,2-d]pyrimidin-4(3H)-one]",< 10,< 10,< 10,< 0.1,,
"O=c1[nH]c([C@@H]2C[C@H](F)CN2)nc2c1oc1ccc(Br)cc12 [Compound 513, 8-bromo-2-[(2S,4S)-4-fluoropyrrolidin-2-yl][1]benzofuro[3,2-d]pyrimidin-4(3H)-one]",< 10,< 10,< 10,< 0.1,,
"O=c1[nH]c([C@@H]2C[C@@H](F)CN2)nc2c1oc1ccc(Br)cc12 [Compound 514, 8-bromo-2-[(2S,4R)-4-fluoropyrrolidin-2-yl][1]benzofuro[3,2-d]pyrimidin-4(3H)-one]",< 10,< 10,< 10,< 0.1,,
"CC1(C)CC[C@@H](c2nc3c(oc4ccc(Br)cc43)c(=O)[nH]2)N1 [Compound 515, 8-bromo-2-[(2S)-5,5-dimethylpyrrolidin-2-yl][1]benzofuro[3,2-d]pyrimidin-4(3H)-one]",< 10,< 10,< 10,< 0.1,,
"CCC(C)N(C)Cc1nc2c(oc3ccc(Br)cc32)c(=O)[nH]1 (stereo not drawn) [Compound 518, 8-bromo-2-{[methyl(1-methylpropyl)amino]methyl}[1]benzofuro[3,2-d]pyrimidin-4(3H)-one]",< 10,< 10,< 10,< 0.1,,
"O=c1[nH]c(CN2CC3CCC2C3)nc2c1oc1ccc(Br)cc12 (stereo not drawn) [Compound 520, 2-(2-azabicyclo[2.2.1]hept-2-ylmethyl)-8-bromo[1]benzofuro[3,2-d]pyrimidin-4(3H)-one]",< 10,< 10,,,< 10,< 0.1
"O=C1CC[C@@H](c2nc3c(oc4ccc(Br)cc43)c(=O)[nH]2)N1 [Compound 523, 8-bromo-2-[(2S)-5-oxopyrrolidin-2-yl][1]benzofuro[3,2-d]pyrimidin-4(3H)-one]",< 10,< 10,< 10,< 0.1,,
"O=c1[nH]c([C@@H]2C[C@@H](F)CN2)nc2c1oc1ccc(Cl)cc12 [Compound 526, 8-chloro-2-[(2S,4R)-4-fluoropyrrolidin-2-yl][1]benzofuro[3,2-d]pyrimidin-4(3H)-one]",< 10,< 10,< 10,< 0.1,,

# Continued, in another order:
IC50 (CK2) [µM],IC50 [1] [µM],IC50 (CDC7; [4]) [µM],IC50 (CDC7; [5]) [µM],SMILES,IC50 (CDC7; [2]) [µM],IC50 (CDC7; [3]) [µM]
< 10,< 10,< 10,< 0.1,"CC(C)(C)NCc1nc2c(oc3ccc(Br)cc32)c(=O)[nH]1 [Compound 503, 8-bromo-2-{[(1,1-dimethylethyl)amino]methyl}[1]benzofuro[3,2-d]pyrimidin-4(3H)-one]",,
< 10,< 10,< 10,,"O=c1[nH]c(CNC2CCCCC2)nc2c1oc1ccc(Br)cc12 [Compound 504, 8-bromo-2-[(cyclohexylamino)methyl][1]benzofuro[3,2-d]pyrimidin-4(3H)-one]",,
< 10,< 10,< 10,< 0.1,"CNCc1nc2c(oc3ccc(Br)cc32)c(=O)[nH]1 [Compound 516, 8-bromo-2-[(methylamino)methyl][1]benzofuro[3,2-d]pyrimidin-4(3H)-one]",,
< 10,< 10,< 10,< 0.1,"CN(C)Cc1nc2c(oc3ccc(Br)cc32)c(=O)[nH]1 [Compound 517, 8-bromo-2-[(dimethylamino)methyl][1]benzofuro[3,2-d]pyrimidin-4(3H)-one]",,
< 10,< 10,< 10,< 0.1,"CC[C@@H](C)NCc1nc2c(oc3ccc(Br)cc32)c(=O)[nH]1 [Compound 519, 8-bromo-2-({[(1R)-1-methylpropyl]amino}methyl)[1]benzofuro[3,2-d]pyrimidin-4(3H)-one]",,
< 10,< 10,< 10,< 0.1,"O=c1[nH]c(CNC2CC2)nc2c1oc1ccc(Br)cc12 [Compound 521, 8-bromo-2-[(cyclopropylamino)methyl][1]benzofuro[3,2-d]pyrimidin-4(3H)-one]",,
< 10,< 10,< 10,< 0.1,"CC[C@H](C)NCc1nc2c(oc3ccc(Br)cc32)c(=O)[nH]1 [Compound 522, 8-bromo-2-({[(1S)-1-methylpropyl]amino}methyl)[1]benzofuro[3,2-d]pyrimidin-4(3H)-one]",,
